This assay addresses T1, CaOYE (Chloroflexus aggregans, UniProt B8G5D6).
T1 construct: gene Cagg_2779; full-length ORF in pET-28a(+) (NdeI/BamHI), N-terminal His6-tag, E. coli BL21(DE3); model visible Met1 to Trp354; monomer in solution, dimer in crystal
The experiment in a line: X-ray crystal structure, […] Å. Type of assay: binding. The note with it: non-covalent, active site; crystals from 100 mM HEPES pH 7.0, 1.1 M sodium malonate.

T1 sequence (B8G5D6 whole entry): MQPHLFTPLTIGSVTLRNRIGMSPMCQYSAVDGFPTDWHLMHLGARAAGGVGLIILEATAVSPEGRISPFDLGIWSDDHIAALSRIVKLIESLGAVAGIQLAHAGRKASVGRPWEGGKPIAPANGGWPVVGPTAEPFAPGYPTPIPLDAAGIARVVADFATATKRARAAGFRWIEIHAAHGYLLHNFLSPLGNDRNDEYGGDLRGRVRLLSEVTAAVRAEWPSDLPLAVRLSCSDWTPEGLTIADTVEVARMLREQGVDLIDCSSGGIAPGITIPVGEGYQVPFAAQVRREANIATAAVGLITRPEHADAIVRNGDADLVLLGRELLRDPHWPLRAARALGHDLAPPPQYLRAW

Consider `Cc1cc2nc3c(=O)[nH]c(=O)nc-3n(C[C@H](O)[C@H](O)[C@H](O)COP(=O)(O)O)c2cc1C` [FMN], for which the “X-ray crystal structure, 2.40 Å” value is given as “The enzyme accommodates one molecule of FMN cofactor on the top of the β-barrel core”.

For the origin of these results see article PMC8146883, “A New Thermophilic Ene-Reductase from the Filamentous Anoxygenic Phototrophic Bacterium Chloroflexus aggregans” (Microorganisms, 2021).
